Data reported in PMC12864978, “Covalent modification of a glutamic acid inspired by HaloTag technology” (Nature Communications, 2026).

Legend:
[1] = biological target: T1, Jurkat cell lysate proteome (Homo sapiens, UniProt O95628); assay: In-lysate thermal proteome profiling (TPP)
T1 sequence (O95628 1-575): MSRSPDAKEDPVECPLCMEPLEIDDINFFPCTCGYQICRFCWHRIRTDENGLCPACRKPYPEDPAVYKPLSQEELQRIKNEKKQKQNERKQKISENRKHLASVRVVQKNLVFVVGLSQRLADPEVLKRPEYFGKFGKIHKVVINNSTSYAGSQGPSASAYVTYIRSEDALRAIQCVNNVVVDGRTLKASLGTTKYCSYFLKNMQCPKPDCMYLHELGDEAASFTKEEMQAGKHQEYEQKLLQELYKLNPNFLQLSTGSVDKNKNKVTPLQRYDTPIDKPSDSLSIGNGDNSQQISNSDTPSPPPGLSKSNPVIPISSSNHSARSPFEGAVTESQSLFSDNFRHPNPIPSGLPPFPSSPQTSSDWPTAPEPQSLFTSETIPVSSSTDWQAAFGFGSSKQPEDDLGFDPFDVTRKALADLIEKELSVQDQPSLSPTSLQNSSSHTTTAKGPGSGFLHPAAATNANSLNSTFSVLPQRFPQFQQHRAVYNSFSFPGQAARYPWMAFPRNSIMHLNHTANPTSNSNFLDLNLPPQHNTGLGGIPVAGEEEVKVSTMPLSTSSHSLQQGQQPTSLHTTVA
Protocol: (§1) Jurkat cells were grown to a density of 1.0–2.5 × 10⁶ cells/ml. A 100 ml aliquot of the suspension was divided equally into two Falcon tubes and chilled on ice for 2 min. Cells were pelleted by centrifugation at 350×g for 3 min at room temperature. After discarding the supernatant, the combined pellet was resuspended in 25 ml of ice-cold PBS buffer. The washing step—centrifugation at 350×g for 2 min at room temperature, followed by supernatant removal—was further repeated twice. Following the final wash, the cell pellet was resuspended in 1.5 ml of PBS containing 0.4% (v/v) NP40 alternative and flash-frozen in liquid nitrogen. […] The resulting lysate was separated by ultracentrifugation at 100,000×g for 20 min at 4 °C (Beckman Coulter Optima MAX-XP, MLA-80 rotor). The supernatant was carefully collected, snap-frozen in liquid nitrogen, and stored at −80 °C for subsequent analysis.
(§2) Protein concentration was quantified using the Bradford protein assay. […] Following incubation, each aliquot was further subdivided into nine 120 µl portions in PCR tubes. […] For analysis, 75 µl of each supernatant was allocated for mass spectrometry-based thermal protein profiling (TPP), while the remaining 25 µl was used for immunoblotting to assess PDEδ levels.
(§3) For mass spectrometric analysis, sample processing was further proceeded with reduction and alkylation, followed by acetone precipitation and tryptic digestion. Each digested aliquot was then labelled with isobaric TMT reagents (Thermo Fisher Scientific, A52047) corresponding to its specific temperature condition from the thermal shift assay.
(§4) Proteins were considered as stabilised or destabilised when, in all three replicates,
(§5) tailed p-values were determined by applying paired t-test comparing AUC of melting curves
(§6) between DMSO-treated and compound-treated conditions, OR
(§7) least ± 10 % (same direction) compared to the DMSO control.

[2] = biological target: Jurkat cell lysate proteome (Homo sapiens, UniProt P36404); assay: In-lysate thermal proteome profiling (TPP)
Chain of Jurkat cell lysate proteome (Homo sapiens, UniProt P36404) (P36404 whole entry): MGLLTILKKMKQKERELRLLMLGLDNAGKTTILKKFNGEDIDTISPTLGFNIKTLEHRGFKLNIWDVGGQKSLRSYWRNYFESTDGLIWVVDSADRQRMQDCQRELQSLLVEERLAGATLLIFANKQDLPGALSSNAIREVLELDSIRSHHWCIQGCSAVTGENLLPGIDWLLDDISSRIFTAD
Protocol: as §1, §2, §3, §4, §5, §6, §7

[3] = biological target: Jurkat cell lysate proteome (Homo sapiens, UniProt Q9UHA4); assay: In-lysate thermal proteome profiling (TPP)
Chain of Jurkat cell lysate proteome (Homo sapiens, UniProt Q9UHA4) (Q9UHA4 whole entry): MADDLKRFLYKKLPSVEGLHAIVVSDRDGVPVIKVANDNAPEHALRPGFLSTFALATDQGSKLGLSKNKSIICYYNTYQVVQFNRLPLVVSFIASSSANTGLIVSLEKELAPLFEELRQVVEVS
Protocol: as §1, §2, §3, §4, §5, §6, §7

[4] = biological target: Jurkat cell lysate proteome (Homo sapiens, UniProt O75044); assay: In-lysate thermal proteome profiling (TPP)
Protocol: as §1, §2, §3, §4, §5, §6, §7

[5] = biological target: Jurkat cell lysate proteome (Homo sapiens, UniProt Q9H583); assay: In-lysate thermal proteome profiling (TPP)
Chain of Jurkat cell lysate proteome (Homo sapiens, UniProt Q9H583) (Q9H583 whole entry): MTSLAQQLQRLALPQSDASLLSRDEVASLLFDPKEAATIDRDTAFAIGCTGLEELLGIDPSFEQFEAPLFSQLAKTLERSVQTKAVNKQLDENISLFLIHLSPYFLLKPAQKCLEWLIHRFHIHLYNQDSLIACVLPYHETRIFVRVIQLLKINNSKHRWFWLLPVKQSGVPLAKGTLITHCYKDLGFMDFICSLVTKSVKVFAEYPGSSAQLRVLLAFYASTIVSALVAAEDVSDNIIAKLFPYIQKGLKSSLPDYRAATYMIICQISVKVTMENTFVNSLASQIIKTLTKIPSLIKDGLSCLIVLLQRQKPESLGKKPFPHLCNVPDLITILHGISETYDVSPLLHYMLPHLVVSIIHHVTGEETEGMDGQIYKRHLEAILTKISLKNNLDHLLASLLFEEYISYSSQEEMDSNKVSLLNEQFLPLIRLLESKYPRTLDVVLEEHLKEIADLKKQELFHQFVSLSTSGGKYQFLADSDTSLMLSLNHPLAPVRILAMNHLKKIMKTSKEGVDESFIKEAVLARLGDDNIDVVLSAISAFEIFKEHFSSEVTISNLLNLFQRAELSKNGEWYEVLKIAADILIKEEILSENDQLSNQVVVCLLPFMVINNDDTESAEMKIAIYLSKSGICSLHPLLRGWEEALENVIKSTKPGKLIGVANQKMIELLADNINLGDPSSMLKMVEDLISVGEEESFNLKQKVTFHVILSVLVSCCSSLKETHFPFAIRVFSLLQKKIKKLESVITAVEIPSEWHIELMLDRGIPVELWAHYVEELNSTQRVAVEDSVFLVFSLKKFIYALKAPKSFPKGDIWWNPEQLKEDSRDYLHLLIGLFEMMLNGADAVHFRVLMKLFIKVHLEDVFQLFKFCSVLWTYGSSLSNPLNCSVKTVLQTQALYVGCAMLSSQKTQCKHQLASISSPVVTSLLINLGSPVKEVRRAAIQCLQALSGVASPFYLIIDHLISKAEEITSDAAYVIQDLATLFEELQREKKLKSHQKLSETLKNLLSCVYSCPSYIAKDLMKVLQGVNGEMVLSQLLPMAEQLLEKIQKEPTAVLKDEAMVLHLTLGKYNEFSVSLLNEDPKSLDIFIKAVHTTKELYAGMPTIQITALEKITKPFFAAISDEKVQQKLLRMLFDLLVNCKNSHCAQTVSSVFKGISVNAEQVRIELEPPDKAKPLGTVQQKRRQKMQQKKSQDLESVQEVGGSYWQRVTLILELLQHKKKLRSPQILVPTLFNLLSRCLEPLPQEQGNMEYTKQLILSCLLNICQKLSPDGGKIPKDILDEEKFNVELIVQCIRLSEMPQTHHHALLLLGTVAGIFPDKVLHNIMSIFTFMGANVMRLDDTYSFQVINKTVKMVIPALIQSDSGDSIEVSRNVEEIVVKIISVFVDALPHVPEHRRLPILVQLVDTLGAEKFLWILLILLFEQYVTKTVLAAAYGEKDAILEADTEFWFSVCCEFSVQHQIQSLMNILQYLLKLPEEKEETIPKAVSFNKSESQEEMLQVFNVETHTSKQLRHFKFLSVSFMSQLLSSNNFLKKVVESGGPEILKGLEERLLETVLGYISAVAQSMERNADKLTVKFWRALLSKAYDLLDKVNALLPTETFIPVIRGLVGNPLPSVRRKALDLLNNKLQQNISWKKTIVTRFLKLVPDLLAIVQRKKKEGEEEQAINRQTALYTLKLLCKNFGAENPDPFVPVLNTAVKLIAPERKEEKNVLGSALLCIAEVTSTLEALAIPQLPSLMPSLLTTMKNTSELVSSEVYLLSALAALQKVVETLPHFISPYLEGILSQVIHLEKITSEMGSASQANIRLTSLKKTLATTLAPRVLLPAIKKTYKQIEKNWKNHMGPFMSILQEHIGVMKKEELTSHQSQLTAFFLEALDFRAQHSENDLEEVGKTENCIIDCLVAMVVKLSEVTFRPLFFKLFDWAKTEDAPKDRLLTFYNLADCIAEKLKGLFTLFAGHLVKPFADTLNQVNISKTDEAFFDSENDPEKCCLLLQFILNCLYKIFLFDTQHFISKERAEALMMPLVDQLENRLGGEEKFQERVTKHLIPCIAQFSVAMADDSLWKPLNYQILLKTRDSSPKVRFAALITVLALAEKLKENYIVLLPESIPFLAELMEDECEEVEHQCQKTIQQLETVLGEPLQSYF
Protocol: as §1, §2, §3, §4, §5, §6, §7

[6] = biological target: Jurkat cell lysate proteome (Homo sapiens, UniProt Q15382); assay: In-lysate thermal proteome profiling (TPP); details: 10 µM, 15 min
Chain of Jurkat cell lysate proteome (Homo sapiens, UniProt Q15382) (Q15382 whole entry): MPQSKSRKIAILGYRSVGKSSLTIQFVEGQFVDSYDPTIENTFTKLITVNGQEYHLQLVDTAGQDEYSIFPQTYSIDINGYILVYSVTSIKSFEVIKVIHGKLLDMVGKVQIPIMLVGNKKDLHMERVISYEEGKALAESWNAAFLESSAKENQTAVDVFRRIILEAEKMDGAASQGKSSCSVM
Protocol: as §1, §2, §3, §4, §5, §6, §7

[7] = biological target: T2, Jurkat cell lysate proteome (Homo sapiens, UniProt Q9H2H9); assay: In-lysate thermal proteome profiling (TPP)
T2 sequence (Q9H2H9 1-487): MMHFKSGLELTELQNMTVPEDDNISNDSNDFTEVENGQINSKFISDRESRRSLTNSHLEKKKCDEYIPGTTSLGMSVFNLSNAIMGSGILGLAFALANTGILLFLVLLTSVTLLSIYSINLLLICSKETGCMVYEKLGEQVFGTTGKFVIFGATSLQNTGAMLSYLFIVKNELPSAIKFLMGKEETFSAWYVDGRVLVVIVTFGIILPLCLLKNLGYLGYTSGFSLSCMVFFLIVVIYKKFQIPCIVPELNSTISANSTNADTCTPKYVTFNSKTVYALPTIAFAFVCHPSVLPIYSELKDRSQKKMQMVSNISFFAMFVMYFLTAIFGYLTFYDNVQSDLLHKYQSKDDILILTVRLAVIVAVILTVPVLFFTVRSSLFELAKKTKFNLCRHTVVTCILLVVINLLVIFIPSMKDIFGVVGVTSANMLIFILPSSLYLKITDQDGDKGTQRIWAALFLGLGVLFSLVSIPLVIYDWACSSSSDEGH
Protocol: as §1, §2, §3, §4, §5, §6, §7

[8] = biological target: Jurkat cell lysate proteome (Homo sapiens, UniProt P05388); assay: In-lysate thermal proteome profiling (TPP)
Protocol: as §1, §2, §3, §4, §5, §6, §7

[9] = biological target: Jurkat cell lysate proteome (Homo sapiens, UniProt P56134); assay: In-lysate thermal proteome profiling (TPP)
Chain of Jurkat cell lysate proteome (Homo sapiens, UniProt P56134) (P56134 whole entry): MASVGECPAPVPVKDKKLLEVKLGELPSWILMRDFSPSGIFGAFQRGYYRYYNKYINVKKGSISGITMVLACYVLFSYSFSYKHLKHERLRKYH
Protocol: as §1, §2, §3, §4, §5, §6, §7

PDEδ = PDEδ (Homo sapiens, UniProt O43924); assay: Mass spectrometry analysis of PDEδ adducts after Glu-C digestion; assay type: binding; set-up: His tag; made in house; host or cells: Escherichia coli Rosetta (BL21DE3), pET plasmids; details: LC-MS/MS, 10:1 compound to protein
Chain of PDEδ (O43924 whole entry): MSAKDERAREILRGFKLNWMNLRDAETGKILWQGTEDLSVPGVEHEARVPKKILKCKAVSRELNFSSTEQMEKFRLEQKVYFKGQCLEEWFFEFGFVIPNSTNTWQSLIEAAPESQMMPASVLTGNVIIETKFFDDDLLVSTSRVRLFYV
Protocol: For each replicate, 1.5 µg covalent adduct of PDEδ sample in PBS buffer was denatured, reduced, alkylated and digested by Glu-C and desalted, together with a negative control of unbound vehicle-treated PDEδ sample prior to mass spectrometry analysis. […] The final mixture containing 6.5 M guanidine hydrochloride was heated at 95 °C for 15 min. Subsequently, after cooling, 0.5 µl of a 50 mM dithiothreitol (DTT, cas 3483-12-3, Gerbu Biotechnik, #1008-100 g) solution was added. […] . Samples were incubated at 37 °C overnight with shaking at 400 rpm, protected from light. […] Desalting was carried out with stage tips with C18 extraction discs (Empore^TM high performance extraction discs, 47 mm, 3 M Bioanalytical Technologies #2215). Each stage tip, which consists of two stacked layers of C18 discs, was activated with methanol (100 µl), washed once with buffer B (100 µl, 0.1% formic acid, 80% acetonitrile), and twice with buffer A (100 µl/time, 0.1% formic acid). After sample loading and washing with buffer A once, the desalted sample was eluted with buffer B (20 µl/sample) and centrifuged at 500×g at room temperature for 5 min. Eluted samples were then dried in a SpeedVac at 30 °C.
Data evaluation was performed using MaxQuant software (v.2.2.0.0)[52]. […] Cleavages by Glu-C were analysed based on the enzyme that was used for digestion. […]

[10] = 10 µM, 15 min, listed as DeltaTag

Q: `Cc1ccc(-n2nc3c(=O)n(CCCCS(=O)(=O)N(CCc4cccc(CCBr)c4)CC4CCNCC4)nc(C)c3c2C)cc1` [6a] was tested. Which “ΔAUC CNOT4” value ([1]; 10 µM, 15 min) did it give?
A: -1.7

Q: What about the “ΔI67°C CNOT4” value ([1]; 10 µM, 15 min) of the same compound?
A: 0 ± 3%

Q: What about the ΔTm at 10 µM ([1]; read-out: ΔTm CNOT4, 10 µM, 15 min) of the same compound?
A: -2.7 ± 1 °C

Q: What about the “ΔAUC Arl2” value ([2]; 10 µM, 15 min) of the same compound?
A: 0.97

Q: What about the ΔTm at 10 µM ([2]; read-out: ΔTm Arl2, 10 µM, 15 min) of the same compound?
A: -0.92 °C

Q: What about the “ΔAUC LAMTOR3” value ([3]; 10 µM, 15 min) of the same compound?
A: -2.1

Q: What about the “ΔI67°C LAMTOR3” value ([3]; 10 µM, 15 min) of the same compound?
A: -3 ± 2%

Q: And the “ΔAUC LAMTOR3” value [3, 10]?
A: −2.1

Q: And the ΔTm at 10 µM ([3]; read-out: ΔTm LAMTOR3, 10 µM, 15 min)?
A: -2.6 ± 1.4 °C

Q: What about the “ΔAUC SRGAP2” value ([4]; 10 µM, 15 min) of the same compound?
A: -2.5

Q: What about the “ΔI67°C SRGAP2” value ([4]; 10 µM, 15 min) of the same compound?
A: -10 ± 7%

Q: What about the “ΔAUC SRGAP2” value [4, 10] of the same compound?
A: −2.5

Q: What about the ΔTm at 10 µM ([4]; read-out: ΔTm SRGAP2, 10 µM, 15 min) of the same compound?
A: -1.3 ± 1.1 °C

Q: And the “ΔAUC HEATR1” value ([5]; 10 µM, 15 min)?
A: -2.9

Q: And the “ΔI67°C HEATR1” value ([5]; 10 µM, 15 min)?
A: -8 ± 6%

Q: And the ΔTm at 10 µM ([5]; read-out: ΔTm HEATR1, 10 µM, 15 min)?
A: -2.8 ± 1.1 °C

Q: And the “ΔAUC RHEB” value [6]?
A: -1.5

Q: And the “ΔI67°C RHEB” value [6]?
A: -6 ± 8%

Q: What about the “ΔTm RHEB” value [6] of the same compound?
A: -0.9 ± 0.8 °C

Q: And the “ΔAUC RHEB” value ([6]; listed as DeltaTag)?
A: −1.5

Q: What about the “ΔTm RHEB” value ([6]; listed as DeltaTag) of the same compound?
A: −0.89 °C

Q: What about the “ΔAUC SLC38A1” value ([7]; 10 µM, 15 min) of the same compound?
A: -3.3

Q: And the “ΔI67°C SLC38A1” value ([7]; 10 µM, 15 min)?
A: -13 ± 5%

Q: And the ΔTm at 10 µM ([7]; read-out: ΔTm SLC38A1, 10 µM, 15 min)?
A: -3.1 ± 0.5 °C

Q: What about the “ΔAUC RPLP0” value ([8]; 10 µM, 15 min) of the same compound?
A: -2.9

Q: And the “ΔI67°C RPLP0” value ([8]; 10 µM, 15 min)?
A: -4 ± 5%

Q: What about the ΔTm at 10 µM ([8]; read-out: ΔTm RPLP0, 10 µM, 15 min) of the same compound?
A: -5.2 ± 2.7 °C

Q: And the “ΔI67°C ATP5J2” value ([9]; 10 µM, 15 min)?
A: 1 ± 1%

Q: And the ΔTm at 10 µM ([9]; read-out: ΔTm ATP5J2, 10 µM, 15 min)?
A: -2 ± 1 °C

Q: And the “site of covalent modification in PDEδ” value (PDEδ)?
A: either at p.E88 or p.E89
